# In ChEMBL document CHEMBL4265937, “Branched pentapeptides as potent inhibitors of the vascular endothelial growth factor 165 binding to Neuropilin-1: Design, synthesis and biological activity” (Eur J Med Chem, 2018):
# Non-standard residues stand in square brackets, D forms with d. Residues, ends and D or L forms follow the SMILES beside them. *: point of attachment. X1 = N=C(N)NCCCCCCCCCCC(=O)*; X2 = N=C(N)NCCCCCCC(=O)*; Dab = NCC[C@H](N)C(=O)O
# What was measured:
# Neuropilin-1 [1] = biological target: Neuropilin-1 (Homo sapiens, UniProt O14786); test: Inhibition of biotinylated VEGF165 binding to NRP1 (unknown origin) by ELISA
# Sequence of Neuropilin-1 (Homo sapiens, UniProt O14786) (O14786 whole entry): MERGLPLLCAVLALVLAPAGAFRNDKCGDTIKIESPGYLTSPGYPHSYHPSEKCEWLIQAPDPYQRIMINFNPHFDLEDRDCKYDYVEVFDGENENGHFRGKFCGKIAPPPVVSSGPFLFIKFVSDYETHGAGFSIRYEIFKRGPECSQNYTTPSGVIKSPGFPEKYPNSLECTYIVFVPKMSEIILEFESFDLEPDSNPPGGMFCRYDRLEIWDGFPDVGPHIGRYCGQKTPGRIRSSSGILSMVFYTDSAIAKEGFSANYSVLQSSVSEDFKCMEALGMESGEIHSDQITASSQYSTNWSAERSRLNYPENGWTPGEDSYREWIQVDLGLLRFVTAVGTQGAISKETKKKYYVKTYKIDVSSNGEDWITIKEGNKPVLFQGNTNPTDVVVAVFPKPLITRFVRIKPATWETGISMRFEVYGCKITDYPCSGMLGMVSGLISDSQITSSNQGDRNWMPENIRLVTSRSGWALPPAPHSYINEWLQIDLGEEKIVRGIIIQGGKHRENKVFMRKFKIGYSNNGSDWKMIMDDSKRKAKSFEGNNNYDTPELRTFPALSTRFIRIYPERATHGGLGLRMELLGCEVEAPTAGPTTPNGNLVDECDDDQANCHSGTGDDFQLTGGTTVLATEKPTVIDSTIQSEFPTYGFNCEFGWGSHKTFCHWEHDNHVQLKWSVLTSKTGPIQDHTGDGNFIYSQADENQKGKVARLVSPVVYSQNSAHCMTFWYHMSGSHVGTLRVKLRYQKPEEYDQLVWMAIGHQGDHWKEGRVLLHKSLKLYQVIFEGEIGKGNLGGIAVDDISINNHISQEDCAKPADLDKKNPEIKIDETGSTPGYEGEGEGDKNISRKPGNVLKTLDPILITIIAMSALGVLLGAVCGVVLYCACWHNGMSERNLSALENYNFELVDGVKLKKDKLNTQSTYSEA
# [2] = biological target: Neuropilin-1 (Rattus norvegicus) (UniProt Q9QWJ9); test: Inhibition of biotinylated VEGF-A165 binding to rat NRP1/FC chimera at 1 uM after 40 mins by ELISA relative to control
# [3] = biological target: Neuropilin-1 (Rattus norvegicus) (UniProt Q9QWJ9); test: Inhibition of biotinylated VEGF-A165 binding to rat NRP1/FC chimera at 0.3 uM after 40 mins by ELISA relative to control
# Neuropilin-1 [4] = biological target: Neuropilin-1 (Rattus norvegicus, UniProt Q9QWJ9); test: Inhibition of biotinylated VEGF-A165 binding to rat NRP1/FC chimera after 40 mins by ELISA
# [5] = Half life in human plasma at 0.9 umol/ml by LC-MS analysis; type: ADME, cell-free
# [6] = biological target: Neuropilin-1 (Rattus norvegicus) (UniProt Q9QWJ9); test: Inhibition of biotinylated VEGF-A165 binding to rat NRP1/FC chimera at 10 uM after 40 mins by ELISA relative to control
inhibition [2],inhibition [3],SMILES,other results
23.6%,18.4%,"N=C(N)NCCC[C@H](NC(=O)[C@H](CN)NC(=O)[C@@H]1CCCN1C(=O)[C@@H](N)CCCCNC(=O)C(N)CCCCN=C(N)N)C(=O)O (stereo partly drawn) (HELM PEPTIDE1{K.P.[NC[C@H](N[*:1])C(=O)[*:2]].R}|PEPTIDE2{[N=C(N)NCCCCC(N)C(=O)[*:2]]}$PEPTIDE1,PEPTIDE2,1:R3-1:R2$$$V2.0)",
83.7%,59.6%,"N=C(N)NCCC[C@H](NC(=O)[C@@H]1CCCN1C(=O)[C@H](CCN)NC(=O)[C@@H](N)CCCCNC(=O)C(N)CCCCN=C(N)N)C(=O)O (stereo partly drawn) (HELM PEPTIDE1{K.[Dab].P.R}|PEPTIDE2{[N=C(N)NCCCCC(N)C(=O)[*:2]]}$PEPTIDE1,PEPTIDE2,1:R3-1:R2$$$V2.0)",IC50 (Neuropilin-1 [4]; read-out: IC50): 200 nM; half-life at 900 µM [5]: 41 h
22.1%,,"N=C(N)NCCC[C@H](NC(=O)[C@@H]1CCCN1C(=O)[C@H](CCCCN)NC(=O)[C@@H](N)CCCCNC(=O)C(N)CCCCN=C(N)N)C(=O)O (stereo partly drawn) (HELM PEPTIDE1{K.K.P.R}|PEPTIDE2{[N=C(N)NCCCCC(N)C(=O)[*:2]]}$PEPTIDE1,PEPTIDE2,1:R3-1:R2$$$V2.0)",
20%,3.9%,"C[C@H](NC(=O)[C@@H](N)CCCCNC(=O)C(N)CCCCN=C(N)N)C(=O)N1CCC[C@H]1C(=O)N[C@@H](CCCNC(=N)N)C(=O)O (stereo partly drawn) (HELM PEPTIDE1{K.A.P.R}|PEPTIDE2{[N=C(N)NCCCCC(N)C(=O)[*:2]]}$PEPTIDE1,PEPTIDE2,1:R3-1:R2$$$V2.0)",
22.4%,20.6%,"N=C(N)NCCC[C@H](NC(=O)[C@H](CCCCN)NC(=O)[C@@H]1CCCN1C(=O)[C@@H](N)CCCCNC(=O)C(N)CCCCN=C(N)N)C(=O)O (stereo partly drawn) (HELM PEPTIDE1{K.P.K.R}|PEPTIDE2{[N=C(N)NCCCCC(N)C(=O)[*:2]]}$PEPTIDE1,PEPTIDE2,1:R3-1:R2$$$V2.0)",
82%,59.4%,"N=C(N)NCCC[C@H](NC(=O)[C@@H]1CCCN1C(=O)[C@H](CN)NC(=O)[C@@H](N)CCCCNC(=O)C(N)CCCCN=C(N)N)C(=O)O (stereo partly drawn) (HELM PEPTIDE1{K.[NC[C@H](N[*:1])C(=O)[*:2]].P.R}|PEPTIDE2{[N=C(N)NCCCCC(N)C(=O)[*:2]]}$PEPTIDE1,PEPTIDE2,1:R3-1:R2$$$V2.0)",IC50 (Neuropilin-1 [4]; read-out: IC50): 200 nM; half-life at 900 µM [5]: 34 h
38%,10.4%,"N=C(N)NCCC[C@H](NC(=O)[C@@H]1CCCN1C(=O)[C@H](CCCN)NC(=O)[C@@H](N)CCCCNC(=O)C(N)CCCCN=C(N)N)C(=O)O (stereo partly drawn) (HELM PEPTIDE1{K.[Orn].P.R}|PEPTIDE2{[N=C(N)NCCCCC(N)C(=O)[*:2]]}$PEPTIDE1,PEPTIDE2,1:R3-1:R2$$$V2.0)",
36.3%,17%,"N=C(N)NCCC[C@H](NC(=O)[C@H](CCN)NC(=O)[C@@H]1CCCN1C(=O)[C@@H](N)CCCNC(=O)C(N)CCCCN=C(N)N)C(=O)O (stereo partly drawn) (HELM PEPTIDE1{[Orn].P.[Dab].R}|PEPTIDE2{[N=C(N)NCCCCC(N)C(=O)[*:2]]}$PEPTIDE1,PEPTIDE2,1:R3-1:R2$$$V2.0)",
17.8%,11.1%,"N=C(N)NCCC[C@H](NC(=O)[C@H](CCCN)NC(=O)[C@@H]1CCCN1C(=O)[C@@H](N)CCCCNC(=O)C(N)CCCCN=C(N)N)C(=O)O (stereo partly drawn) (HELM PEPTIDE1{K.P.[Orn].R}|PEPTIDE2{[N=C(N)NCCCCC(N)C(=O)[*:2]]}$PEPTIDE1,PEPTIDE2,1:R3-1:R2$$$V2.0)",
77.5%,54.2%,"C[C@H](NC(=O)[C@@H]1CCCN1C(=O)[C@@H](N)CCCCNC(=O)C(N)CCCCN=C(N)N)C(=O)N[C@@H](CCCNC(=N)N)C(=O)O (stereo partly drawn) (HELM PEPTIDE1{K.P.A.R}|PEPTIDE2{[N=C(N)NCCCCC(N)C(=O)[*:2]]}$PEPTIDE1,PEPTIDE2,1:R3-1:R2$$$V2.0)",IC50 (Neuropilin-1 [4]; read-out: IC50): 300 nM; half-life at 900 µM [5]: 0.65 h
82.6%,62.2%,"N=C(N)NCCC[C@H](NC(=O)[C@H](CCN)NC(=O)[C@@H]1CCCN1C(=O)[C@@H](N)CCCCNC(=O)C(N)CCCCN=C(N)N)C(=O)O (stereo partly drawn) (HELM PEPTIDE1{K.P.[Dab].R}|PEPTIDE2{[N=C(N)NCCCCC(N)C(=O)[*:2]]}$PEPTIDE1,PEPTIDE2,1:R3-1:R2$$$V2.0)",IC50 (Neuropilin-1 [4]; read-out: IC50): 200 nM; IC50 (Neuropilin-1 [4]; read-out: pIC50 (converted)): 240 nM; half-life at 900 µM [5]: 0.733 h

# Continued, compound first:
SMILES,inhibition [2],inhibition [3],other results
N=C(N)NCCC[C@H](NC(=O)[C@@H]1CCCN1C(=O)C(CCN)NC(=O)[C@@H](N)CCCCN=C(N)N)C(=O)O (stereo partly drawn) (HELM PEPTIDE1{[N=C(N)NCCCC[C@H](N)C(=O)[*:2]].[NCCC(N[*:1])C(=O)[*:2]].P.R}$$$$V2.0),,,IC50 (Neuropilin-1 [1]): 800 nM
"N=C(N)NCCC[C@H](NC(=O)[C@@H]1CCCN1C(=O)[C@@H]1CCCN1C(=O)[C@@H](N)CCCCNC(=O)C(N)CCCCN=C(N)N)C(=O)O (stereo partly drawn) (HELM PEPTIDE1{K.P.P.R}|PEPTIDE2{[N=C(N)NCCCCC(N)C(=O)[*:2]]}$PEPTIDE1,PEPTIDE2,1:R3-1:R2$$$V2.0)",41.4%,4.7%,IC50 (Neuropilin-1 [4]; read-out: IC50): 1000 nM
N=C(N)NCCCCCCC(=O)NCCCC[C@H](N)C(=O)N1CCC[C@H]1C(=O)N[C@@H](CCN)C(=O)N[C@@H](CCCNC(=N)N)C(=O)O (H-K(X2)P[Dab]R-OH),44.7%,25.5%,
"N=C(N)NCCC[C@H](NC(=O)[C@H](CCN)NC(=O)[C@@H]1CCCN1C(=O)[C@@H](N)CCNC(=O)C(N)CCCCN=C(N)N)C(=O)O (stereo partly drawn) (HELM PEPTIDE1{[Dab].P.[Dab].R}|PEPTIDE2{[N=C(N)NCCCCC(N)C(=O)[*:2]]}$PEPTIDE1,PEPTIDE2,1:R3-1:R2$$$V2.0)",41.4%,5.7%,
"N=C(N)NCCCC(N)C(=O)NCCC[C@H](N)C(=O)N1CCC[C@H]1C(=O)N[C@@H](CCN)C(=O)N[C@@H](CCCNC(=N)N)C(=O)O (stereo partly drawn) (HELM PEPTIDE1{[Orn].P.[Dab].R}|PEPTIDE2{[N=C(N)NCCCC(N)C(=O)[*:2]]}$PEPTIDE1,PEPTIDE2,1:R3-1:R2$$$V2.0)",40.3%,2.8%,
"C[C@H](NC(=O)[C@H](CCCN)NC(=O)[C@@H](N)CCCCNC(=O)C(N)CCCCN=C(N)N)C(=O)N[C@@H](CCCNC(=N)N)C(=O)O (stereo partly drawn) (HELM PEPTIDE1{K.[Orn].A.R}|PEPTIDE2{[N=C(N)NCCCCC(N)C(=O)[*:2]]}$PEPTIDE1,PEPTIDE2,1:R3-1:R2$$$V2.0)",15.6%,,
"C[C@H](NC(=O)[C@H](CCCCN)NC(=O)[C@@H](N)CCCCNC(=O)C(N)CCCCN=C(N)N)C(=O)N[C@@H](CCCNC(=N)N)C(=O)O (stereo partly drawn) (HELM PEPTIDE1{K.K.A.R}|PEPTIDE2{[N=C(N)NCCCCC(N)C(=O)[*:2]]}$PEPTIDE1,PEPTIDE2,1:R3-1:R2$$$V2.0)",22.2%,,
"N=C(N)NCCC[C@H](NC(=O)[C@@H]1CCCN1C(=O)[C@@H](N)CCCCNC(=O)C(N)CCCCN=C(N)N)C(=O)O (stereo partly drawn) (HELM PEPTIDE1{K.P.R}|PEPTIDE2{[N=C(N)NCCCCC(N)C(=O)[*:2]]}$PEPTIDE1,PEPTIDE2,1:R3-1:R2$$$V2.0)",,,inhibition [6]: 47.8%
N=C(N)NCCC[C@H](NC(=O)[C@@H]1CCCN1C(=O)[C@@H]1CCCN1C(=O)[C@@H](N)CCCCN)C(=O)O (H-KPPR-OH),15.4%,10.1%,IC50 (Neuropilin-1 [1]): 4600 nM
"N=C(N)NCCC[C@H](NC(=O)[C@H](CCN)NC(=O)[C@@H]1CCCN1C(=O)[C@@H](N)CCCCNC(=O)C(N)CCNC(=N)N)C(=O)O (stereo partly drawn) (HELM PEPTIDE1{K.P.[Dab].R}|PEPTIDE2{[N=C(N)NCCC(N)C(=O)[*:2]]}$PEPTIDE1,PEPTIDE2,1:R3-1:R2$$$V2.0)",28%,5.7%,
"C[C@H](NC(=O)[C@H](C)NC(=O)[C@@H](N)CCCCNC(=O)C(N)CCCCN=C(N)N)C(=O)N[C@@H](CCCNC(=N)N)C(=O)O (stereo partly drawn) (HELM PEPTIDE1{K.A.A.R}|PEPTIDE2{[N=C(N)NCCCCC(N)C(=O)[*:2]]}$PEPTIDE1,PEPTIDE2,1:R3-1:R2$$$V2.0)",48.9%,16.9%,
"N=C(N)NCCCC(N)C(=O)NCCCC[C@H](N)C(=O)N1CCC[C@H]1C(=O)N[C@@H](CCN)C(=O)N[C@@H](CCCNC(=N)N)C(=O)O (stereo partly drawn) (HELM PEPTIDE1{K.P.[Dab].R}|PEPTIDE2{[N=C(N)NCCCC(N)C(=O)[*:2]]}$PEPTIDE1,PEPTIDE2,1:R3-1:R2$$$V2.0)",39.9%,8%,
N=C(N)NCCCCCCCCCCC(=O)NCCCC[C@H](N)C(=O)N1CCC[C@H]1C(=O)N[C@@H](CCN)C(=O)N[C@@H](CCCNC(=N)N)C(=O)O (H-K(X1)P[Dab]R-OH),35.5%,12.1%,
"C[C@H](NC(=O)[C@H](CCN)NC(=O)[C@@H](N)CCCCNC(=O)C(N)CCCCN=C(N)N)C(=O)N[C@@H](CCCNC(=N)N)C(=O)O (stereo partly drawn) (HELM PEPTIDE1{K.[Dab].A.R}|PEPTIDE2{[N=C(N)NCCCCC(N)C(=O)[*:2]]}$PEPTIDE1,PEPTIDE2,1:R3-1:R2$$$V2.0)",47.3%,16.1%,
"C[C@H](NC(=O)[C@H](CN)NC(=O)[C@@H](N)CCCCNC(=O)C(N)CCCCN=C(N)N)C(=O)N[C@@H](CCCNC(=N)N)C(=O)O (stereo partly drawn) (HELM PEPTIDE1{K.[NC[C@H](N[*:1])C(=O)[*:2]].A.R}|PEPTIDE2{[N=C(N)NCCCCC(N)C(=O)[*:2]]}$PEPTIDE1,PEPTIDE2,1:R3-1:R2$$$V2.0)",25%,14.1%,
